Results from patent US8614214B2, “Pyrazole amide compounds and uses thereof” (Sinochem Corporation, priority 2010, dated 2013).
Where two headings read alike, the source gives them in different places.

Legend:
banana anthracnose = type: cell-based
cucumber downy mildew [1] = assay: Persistence comparative test against cucumber downy mildew (greenhouse); type: in vivo
mango anthracnose = type: cell-based
corn rust = assay: Greenhouse pot seedling assay, corn rust; type: in vivo; conditions: for Control (%): comparative test, Table 20; for control of corn rust: greenhouse
cucumber downy mildew [2] = assay: Field trial against cucumber downy mildew; type: in vivo; conditions: for Control (%) average: average of 3 replicates; for Control (%) I: replicate I; for Control (%) II: replicate II; for Control (%) III: replicate III
Procedure: The trial was carried out in a greenhouse in July 2011 in […] district, Shanxi Province. Before the treatment, the cucumber plants were at the beginning of infection. The trial method was based on the National Standard of the People's Republic of China-“Pesticide-Guidelines for The Field Efficacy Trials”. […] The Area of plot was 15 m^2, random arrangement and 3 times replication. The volume was about 600 L/hm^2, and water was as the control. Efficacy calculation method is as follows: [formula] [formula]

rice sheath blight = type: cell-based
sigatoka = type: cell-based
wheat powdery mildew = assay: Greenhouse pot seedling assay, wheat powdery mildew; type: in vivo; conditions: 400 ppm
rice blast [3] = type: cell-based
cucumber downy mildew [4] = assay: Greenhouse pot seedling assay, cucumber downy mildew; type: in vivo; conditions: for Control (%): comparative test, Table 18; for control of cucumber downy mildew: greenhouse
rice blast [5] = type: in vivo
[6] = system: corn southern leaf blight; type: cell-based

CNC(=O)c1ccccc1NC(=O)COc1ccc(CNC(=O)c2c(Cl)c(C)nn2C)cc1 [Compound 15]
EC50 against banana anthracnose (banana anthracnose): 2.867 ppm | Control (%) (cucumber downy mildew [1]; 25 ppm, inoculation 3 days after treatment): 52% | Control (%) (cucumber downy mildew [1]; 25 ppm, inoculation 7 days after treatment): 44% | Control (%) (cucumber downy mildew [1]; 50 ppm, inoculation 3 days after treatment): 74% | Control (%) (cucumber downy mildew [1]; 50 ppm, inoculation 7 days after treatment): 62% | Control (%) (cucumber downy mildew [1]; 100 ppm, inoculation 3 days after treatment): 96% | Control (%) (cucumber downy mildew [1]; 100 ppm, inoculation 7 days after treatment): 70% | Control (%) (cucumber downy mildew [1]; 200 ppm, inoculation 3 days after treatment): 100% | Control (%) (cucumber downy mildew [1]; 200 ppm, inoculation 7 days after treatment): 74% | Control (%) (cucumber downy mildew [1]; 400 ppm, inoculation 3 days after treatment): 100% | Control (%) (cucumber downy mildew [1]; 400 ppm, inoculation 7 days after treatment): 81% | EC50 against mango anthracnose (mango anthracnose): 1.518 ppm | Control (%) (corn rust; 3.13 ppm): 20% | Control (%) (corn rust; 6.25 ppm): 60% | Control (%) (corn rust; 12.5 ppm): 80% | Control (%) (corn rust; 25 ppm): 95% | control of corn rust (corn rust; 25 ppm): 100% | Control (%) (corn rust; 50 ppm): 100% | Control (%) (corn rust; 100 ppm): 100% | Biological activity in greenhouse, corn rust (corn rust; 400 ppm, Table 21): 100 | control of corn rust (corn rust; 400 ppm): 100% | Control (%) average (cucumber downy mildew [2]; 100 ppm): 52% | Control (%) I (cucumber downy mildew [2]; 100 ppm): 33% | Control (%) II (cucumber downy mildew [2]; 100 ppm): 53% | Control (%) III (cucumber downy mildew [2]; 100 ppm): 69% | Control (%) average (cucumber downy mildew [2]; 200 ppm): 66% | Control (%) I (cucumber downy mildew [2]; 200 ppm): 60% | Control (%) II (cucumber downy mildew [2]; 200 ppm): 65% | Control (%) III (cucumber downy mildew [2]; 200 ppm): 72% | Control (%) average (cucumber downy mildew [2]; 400 ppm): 82% | Control (%) I (cucumber downy mildew [2]; 400 ppm): 80% | Control (%) II (cucumber downy mildew [2]; 400 ppm): 81% | Control (%) III (cucumber downy mildew [2]; 400 ppm): 86% | EC50 against rice sheath blight (rice sheath blight): 0.799 ppm | EC50 against sigatoka (sigatoka): 2.389 ppm | Biological activity in greenhouse, wheat powdery mildew (wheat powdery mildew; Table 21): 100 | control of wheat powdery mildew (wheat powdery mildew; greenhouse): 100% | inhibition ratio on spore germination of rice blast (rice blast [3]; 0.3 ppm): 100% | inhibition ratio on spore germination of rice blast (rice blast [3]; 25 ppm): 100% | Control (%) (cucumber downy mildew [4]; 6.25 ppm): 44% | Control (%) (cucumber downy mildew [4]; 12.5 ppm): 66% | Control (%) (cucumber downy mildew [4]; 25 ppm): 88% | control of cucumber downy mildew (cucumber downy mildew [4]; 25 ppm): 100% | Control (%) (cucumber downy mildew [4]; 50 ppm): 96% | control of cucumber downy mildew (cucumber downy mildew [4]; 50 ppm): 100% | Control (%) (cucumber downy mildew [4]; 100 ppm): 100% | Biological activity in greenhouse, cucumber downy mildew (cucumber downy mildew [4]; 400 ppm, Table 21): 100 | control of cucumber downy mildew (cucumber downy mildew [4]; 400 ppm): 100% | Control (%) I (rice blast [5]; 400 ppm): 69% | Control (%) II (rice blast [5]; 400 ppm): 71% | Control (%) III (rice blast [5]; 400 ppm): 67% | Control (%) average (rice blast [5]; 400 ppm): 69% | Control (%) I (rice blast [5]; 600 ppm): 77% | Control (%) II (rice blast [5]; 600 ppm): 81% | Control (%) III (rice blast [5]; 600 ppm): 77% | Control (%) average (rice blast [5]; 600 ppm): 78% | Control (%) I (rice blast [5]; 800 ppm): 84% | Control (%) II (rice blast [5]; 800 ppm): 89% | Control (%) III (rice blast [5]; 800 ppm): 88% | Control (%) average (rice blast [5]; 800 ppm): 87% | EC50 against corn southern leaf blight [6]: 0.035 ppm
